Reference: publication PMC10749895, “ppGpp accumulation reduces the expression of the global nitrogen homeostasis-modulating NtcA regulon by affecting 2-oxoglutarate levels” (Communications Biology, 2023)

Legend:
[1] = molecular target: T1, Synpcc7942_0903 (aconitase, ACN) (Synechococcus elongatus, UniProt Q31PT6); test: aconitase activity, cis-aconitate formation at […] nm; format: biochemical; settings: 0.25-10 µM ppGpp, 10 min preincubation; 1 mM citrate, 100 mM potassium phosphate pH 8.0, 30 °C, anaerobic; inhibitor
T1 construct: full-length gene in pET28a (NdeI/HindIII), N-terminal His6-tag, E. coli BL21-CodonPlus(DE3)-RIL, Ni column, purified anaerobically

[2] = molecular target: T1, Synpcc7942_0903 (aconitase, ACN); test: as above; format: biochemical; settings: 1 mM citrate, 100 mM potassium phosphate pH 8.0, 30 °C, anaerobic

| relative activity (% of activity without ppGpp) at maximum inhibition [1] | SMILES | aconitase activity, cis-aconitate formation at 240 nm [2] |
| --- | --- | --- |
| ~ 63 | Nc1nc2c(ncn2[C@@H]2O[C@H](COP(=O)(O)OP(=O)(O)O)[C@@H](OP(=O)(O)OP(=O)(O)O)[C@H]2O)c(=O)[nH]1 [ppGpp] |  |
|  | O=C(O)CC(O)(CC(=O)O)C(=O)O [citrate] | monitoring the formation of cis-aconitate in a reaction mixture containing |
